How the values were obtained:
in vitro = conditions: human
[1] = test system: HCV genotype 1b subgenomic replicon (2209-23 cells); assay: HCV Replicon assay (Renilla luciferase reporter); assay type: cell-based; conditions: Hepatitis C virus, Huh-7, 72 h; genotype 1b replicon, 2209-23 Huh7 cells, three days incubation, Renilla luciferase readout

Row | Compound | CC50 (in vitro) | IC50 [1]
1 | CCOC(=O)[C@H](C)NP(=O)(OC[C@@]1(N=[N+]=[N-])O[C@@H](n2ccc(=O)[nH]c2=O)[C@H](O)[C@@H]1F)Oc1cccc2ccccc12 (stereo partly drawn) [Compound I-3, (S)-2-[[(2R,3S,4S,5R)-2-Azido-5-(2,4-dioxo-3,4-dihydro-2H-pyrimidin-1-yl)-3-fluoro-4-hydroxy-tetrahydro-furan-2-ylmethoxy]-(naphthalen-1-yloxy)-phosphorylamino]-propionic acid ethyl ester] | > 100 µM | 79.1 µM
2 | CCOC(=O)[C@H](C)NP(=O)(OC[C@@]1(N=[N+]=[N-])O[C@@H](n2ccc(=O)[nH]c2=O)[C@H](O)[C@@H]1F)Oc1ccccc1 (stereo partly drawn) [Compound I-2, (S)-2-{[(2R,3S,4S,5R)-2-Azido-5-(2,4-dioxo-3,4-dihydro-2H-pyrimidin-1-yl)-3-fluoro-4-hydroxy-tetrahydro-furan-2-ylmethoxy]-phenoxy-phosphorylamino}-propionic acid ethyl ester] | > 100 µM | 39.8 µM
3 | CCC(=O)O[C@H]1[C@H](n2ccc(N)nc2=O)O[C@@](COP(=O)(N[C@@H](C)C(=O)OC(C)C)Oc2cccc3ccccc23)(N=[N+]=[N-])[C@H]1F (stereo partly drawn) [Compound I-9, (S)-2-[[(2R,3S,4S,5R)-5-(4-Amino-2-oxo-2H-pyrimidin-1-yl)-2-azido-3-fluoro-4-propionyloxy-tetrahydro-furan-2-ylmethoxy]-(naphthalen-1-yloxy)-phosphorylamino]-propionic acid isopropyl ester] | 58 µM | 27 µM
4 | CCOC(=O)[C@H](C)NP(=O)(OC[C@@]1(N=[N+]=[N-])O[C@@H](n2ccc(N)nc2=O)[C@H](O)[C@@H]1F)Oc1cccc2ccccc12 (stereo partly drawn) [Compound I-6, (S)-2-[[(2R,3S,4S,5R)-5-(4-Amino-2-oxo-2H-pyrimidin-1-yl)-2-azido-3-fluoro-4-hydroxy-tetrahydro-furan-2-ylmethoxy]-(naphthalen-1-yloxy)-phosphorylamino]-propionic acid ethyl ester] | > 100 µM | 32 µM
5 | CC(C)OC(=O)[C@H](C)NP(=O)(O)OC[C@@]1(N=[N+]=[N-])O[C@@H](n2ccc(N)nc2=O)[C@H](O)[C@@H]1F [Compound I-8, (S)-2-{[(2R,3S,4S,5R)-5-(4-Amino-2-oxo-2H-pyrimidin-1-yl)-2-azido-3-fluoro-4-hydroxy-tetrahydro-furan-2-ylmethoxy]-hydroxy-phosphorylamino}-propionic acid isopropyl ester] | > 100 µM | > 100 µM
6 | CC(C)OC(=O)[C@H](C)NP(=O)(OC[C@@]1(N=[N+]=[N-])O[C@@H](n2ccc(N)nc2=O)[C@H](O)[C@@H]1F)Oc1cccc2ccccc12 (stereo partly drawn) [Compound I-4, (S)-2-[[(2R,3S,4S,5R)-5-(4-Amino-2-oxo-2H-pyrimidin-1-yl)-2-azido-3-fluoro-4-hydroxy-tetrahydro-furan-2-ylmethoxy]-(naphthalen-1-yloxy)-phosphorylamino]-propionic acid isopropyl ester] | > 100 µM | > 100 µM
7 | CC(C)OC(=O)[C@H](C)NP(=O)(OC[C@@]1(N=[N+]=[N-])O[C@@H](n2ccc(=O)[nH]c2=O)[C@H](O)[C@@H]1F)Oc1ccccc1 (stereo partly drawn) [Compound I-1, (S)-2-{[(2R,3S,4S,5R)-2-Azido-5-(2,4-dioxo-3,4-dihydro-2H-pyrimidin-1-yl)-3-fluoro-4-hydroxy-tetrahydro-furan-2-ylmethoxy]-phenoxy-phosphorylamino}-propionic acid isopropyl ester] | > 100 µM | > 100 µM
8 | CC(C)OC(=O)[C@H](C)NP(=O)(OC[C@@]1(N=[N+]=[N-])O[C@@H](n2ccc(N)nc2=O)[C@H](O)[C@@H]1F)Oc1ccccc1 (stereo partly drawn) [Compound I-7, (S)-2-{[(2R,3S,4S,5R)-5-(4-Amino-2-oxo-2H-pyrimidin-1-yl)-2-azido-3-fluoro-4-hydroxy-tetrahydro-furan-2-ylmethoxy]-phenoxy-phosphorylamino}-propionic acid isopropyl ester] | > 100 µM | 56 µM
9 | C[C@H](NP(=O)(OC[C@@]1(N=[N+]=[N-])O[C@@H](n2ccc(N)nc2=O)[C@H](O)[C@@H]1F)Oc1cccc2ccccc12)C(=O)OCc1ccccc1 (stereo partly drawn) [Compound I-5, (S)-2-[[(2R,3S,4S,5R)-5-(4-Amino-2-oxo-2H-pyrimidin-1-yl)-2-azido-3-fluoro-4-hydroxy-tetrahydro-furan-2-ylmethoxy]-(naphthalen-1-yloxy)-phosphorylamino]-propionic acid benzyl ester] | 91.2 µM | 1.54 µM

Reference: patent US9708357B2, “4′-azido, 3′-fluoro substituted nucleoside derivatives as inhibitors of HCV RNA replication” (Riboscience LLC, priority 2011, dated 2017)
